Test results taken from ChEMBL document CHEMBL1201862, “PubChem BioAssay data set” (2004).
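48-hour exposure; five concentrations; linearly interpolated endpoints. GI50: concentration for 50% inhibition of growth.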 Calls of active or inactive are those of the source. No stated cut-off is given here; in the data, active = GI50 up to about 1.1 µM and inactive = higher.

What was measured:
Assay in all cases: inhibition of tumour cell growth, NCI panel, 48 h
Hs-578T = test system: Hs-578T
OVCAR-5 = test system: OVCAR-5
SF-539 = test system: SF-539
T47D = test system: T47D
NCI-H226 = test system: NCI-H226
M14 = test system: M14
CCRF-CEM = test system: CCRF-CEM
NCI-H23 = test system: NCI-H23
IGROV-1 = test system: IGROV-1
MDA-N = test system: MDA-N
COLO 205 = test system: COLO 205
KM12 = test system: KM12
SW-620 = test system: SW-620
RPMI-8226 = test system: RPMI-8226
SR = test system: SR
786-0 = test system: 786-0
HOP-92 = test system: HOP-92
U-251 = test system: U-251
SK-MEL-2 = test system: SK-MEL-2
HCT-15 = test system: HCT-15

Compound	GI50 (Hs-578T)	GI50 (OVCAR-5)	GI50 (SF-539)	GI50 (T47D)	GI50 (NCI-H226)	GI50 (M14)	GI50 (CCRF-CEM)	GI50 (NCI-H23)	GI50 (IGROV-1)	GI50 (MDA-N)	GI50 (COLO 205)	GI50 (KM12)	GI50 (SW-620)	GI50 (RPMI-8226)	GI50 (SR)	GI50 (786-0)	GI50 (HOP-92)	GI50 (U-251)	GI50 (SK-MEL-2)	GI50 (HCT-15) [µM]
CCN(CC)C(=O)c1cc([N+](=O)[O-])c(=O)n2c1[nH]c1ccccc12	> 100 µM (inactive)	> 100 µM (inactive)	> 100 µM (inactive)	> 100 µM (inactive)	> 100 µM (inactive)	> 100 µM (inactive)	> 100 µM (inactive)	> 100 µM (inactive)	> 100 µM (inactive)	> 100 µM (inactive)	> 100 µM (inactive)	> 100 µM (inactive)	> 100 µM (inactive)	> 100 µM (inactive)	> 100 µM (inactive)	> 100 µM (inactive)	> 100 µM (inactive)			
CN1CCN(C(=S)N(C(=O)c2cccs2)c2ccccc2)CC1	> 100 µM (inactive)	94.6 µM (inactive)		> 100 µM (inactive)	> 100 µM (inactive)	> 100 µM (inactive)	> 100 µM (inactive)	> 100 µM (inactive)	> 100 µM (inactive)	> 100 µM (inactive)	> 100 µM (inactive)	> 100 µM (inactive)	> 100 µM (inactive)	> 100 µM (inactive)	> 100 µM (inactive)	> 100 µM (inactive)	> 100 µM (inactive)	> 100 µM (inactive)	> 100 µM (inactive)	> 100
Cc1cc(S(=O)(=O)Nc2nc(-c3ccccn3)n[nH]2)c(S)cc1Cl	28.8 µM (inactive)	15.5 µM (inactive)	21.7 µM (inactive)	15.3 µM (inactive)	12.3 µM (inactive)	15.2 µM (inactive)			25.3 µM (inactive)	42.2 µM (inactive)	25.9 µM (inactive)	20.4 µM (inactive)	12.2 µM (inactive)	33.7 µM (inactive)	24.3 µM (inactive)	12.1 µM (inactive)	19 µM (inactive)	13.3 µM (inactive)	10.3 µM (inactive)	5.68
CCOC(=O)[C@@H]1ON2O[C@@H](OC3CCCCC3c3ccccc3)C[C@H]3OC(=O)[C@@H]1C32 (stereo partly specified)	> 100 µM (inactive)	> 100 µM (inactive)	> 100 µM (inactive)	> 100 µM (inactive)	93.8 µM (inactive)	> 100 µM (inactive)	0.792 µM (active)	53.6 µM (inactive)	> 100 µM (inactive)	> 100 µM (inactive)	> 100 µM (inactive)	> 100 µM (inactive)	> 100 µM (inactive)	> 100 µM (inactive)	97.9 µM (inactive)	> 100 µM (inactive)	> 100 µM (inactive)	> 100 µM (inactive)		> 100
O=C(O)CO[C@@]12C#C/C=C\C#C[C@@H]3N(C(=O)Oc4ccccc4)c4ccccc4[C@]14O[C@@]34CCC2	19.4 µM (inactive)		31.4 µM (inactive)	10.3 µM (inactive)	71.9 µM (inactive)	41.1 µM (inactive)	29.7 µM (inactive)	53.5 µM (inactive)	27.2 µM (inactive)	14.9 µM (inactive)	20 µM (inactive)	17.6 µM (inactive)	47.6 µM (inactive)	31.6 µM (inactive)	55.2 µM (inactive)	26.9 µM (inactive)	57.4 µM (inactive)	19.1 µM (inactive)	16.2 µM (inactive)	8.55
COc1ccc(C2N(c3ccc(F)cc3)C(=O)N3C(c4ccc(OC)cc4)N(c4ccc(F)cc4)C(=O)N23)cc1 (stereo unspecified)	> 100 µM (inactive)	> 100 µM (inactive)	> 100 µM (inactive)	> 100 µM (inactive)		> 100 µM (inactive)	> 100 µM (inactive)	> 100 µM (inactive)	> 100 µM (inactive)	> 100 µM (inactive)	> 100 µM (inactive)	> 100 µM (inactive)	> 100 µM (inactive)	> 100 µM (inactive)	34 µM (inactive)	> 100 µM (inactive)	> 100 µM (inactive)	> 100 µM (inactive)	> 100 µM (inactive)	> 100
